In this assay the test system is NHEKs, differentially expressed genes. Nature of the assay: RNA-Seq transcriptomic profile of NHEKs. The format is cell-based, human. The note with it: U1 + peptide in comparison to U1 + LL-34 parent, protein-protein interaction networks from RNA-Seq. The source says: RNA-Seq was utilized to obtain a global transcriptomic profile and map unique immune pathways in NHEKs exposed to U1 dsRNA, LL-34 parent, Pep I24A, Pep L31A, and a combination of U1 dsRNA and LL-34 parent, Pep I24A, or Pep L31A. […] Similarly, 448 and 325 unique differentially regulated genes were observed after U1 + I24A and U1 + L31A treatments, respectively (Fig. 3, A and B and Fig. S2, A and B). […] These pathways included type 1 interferon signaling, cytokine signaling, response to external biotic stimulus, and cytokine-mediated signaling pathway. […] We verified the repression of mitochondrial antiviral signaling (MAVS) with immunoblot analysis. NHEKs were treated with U1 dsRNA, LL-34 parent, Pep I24A, Pep L31A, or with a combination of U1 and LL-34 parent, U1 and Pep I24A, or U1 and Pep L31A (Fig. 3E).
RNA was extracted using a PureLink RNA Mini Kit (Life Technologies). Isolated RNA was submitted to the UCSD IGM Genomics Center for RNA-Seq performed on a high-output run V4 platform (Illumina) with a single-read 100 cycle runs. Data alignment was done on Partek Flow software (Partek) with Tophat2 (version 2.0.8). Gene Ontology enrichment analysis was performed on differentially regulated genes (≥1.5-fold) using Partek Flow software. The protein–protein interaction network was generated in the InnateDB database ([44]).

The results in this text go back to publication PMC8214221, “Sequence determinants in the cathelicidin LL-37 that promote inflammation via presentation of RNA to scavenger receptors” (The Journal of Biological Chemistry, 2021).

The structures appear in SMILES notation. Residues, ends and D or L forms follow the SMILES beside them.

With `CC[C@H](C)[C@H](NC(=O)[C@H](CCCCN)NC(=O)[C@H](CCC(=O)O)NC(=O)[C@H](CCCCN)NC(=O)[C@H](CO)NC(=O)[C@H](CCCCN)NC(=O)[C@H](CCCNC(=N)N)NC(=O)[C@H](Cc1ccccc1)NC(=O)[C@H](Cc1ccccc1)NC(=O)[C@H](CC(=O)O)NC(=O)CNC(=O)[C@H](CC(C)C)NC(=O)[C@@H](N)CC(C)C)C(=O)NCC(=O)N[C@@H](CCCCN)C(=O)N[C@@H](CCC(=O)O)C(=O)N[C@@H](Cc1ccccc1)C(=O)N[C@@H](CCCCN)C(=O)N[C@@H](CCCNC(=N)N)C(=O)N[C@H](C(=O)N[C@H](C(=O)N[C@@H](CCC(N)=O)C(=O)N[C@@H](CCCNC(=N)N)C(=O)N[C@@H](C)C(=O)N[C@@H](CCCCN)C(=O)N[C@@H](CC(=O)O)C(=O)N[C@@H](Cc1ccccc1)C(=O)N[C@@H](CC(C)C)C(=O)N[C@@H](CCCNC(=N)N)C(=O)N[C@@H](CC(N)=O)C(=O)N[C@@H](CC(C)C)C(=O)N[C@H](C(=O)N1CCC[C@H]1C(=O)N[C@@H](CCCNC(=N)N)C(=O)O)C(C)C)C(C)C)[C@@H](C)CC` [LL-34—I24A] (H-LLGDFFRKSKEKIGKEFKRIVQRAKDFLRNLVPR-OH), the “Type I interferon signaling and RIGI antiviral pathway genes (STAT, ISG15, OAS1, IRF2, DDX58, MAVS)” value is listed as “repressed”.
